The target of the assay is T1, Recombinant human HSP90α (Homo sapiens, UniProt P07900).
T1 construct: host or cells: E. coli
In words: HSP90 radioligand filter binding test ([3H]17AAG competition). The note with it: [3H]17AAG 0.08 μM, HSP90 1.5 μg/assay, 22° C., 30 min; read-out: HSP90 inhibition IC50. An excerpt:
The binding of geldanamycin or 17-allylamino-17-demethoxygeldanamycin (17AAG) to HSP90 and competitive inhibition thereof can be utilised in order to determine the inhibitory activity of the compounds according to the invention (Carreras et al. 2003, Chiosis et al. 2002).
In the specific case, a radioligand filter binding test is used. The radioligand used here is tritium-labelled 17-allylaminogeldanamycin, [3H]17AAG. This filter binding test allows a targeted search for inhibitors which interfere with the ATP binding site.
Recombinant human HSP90α (E. coli expressed, 95% purity);
[3H]17AAG (17-allylaminogeldanamycin, [allylamino-2,3-^3H. Specific activity: 1.11×10^12 Bq/mmol (Moravek, MT-1717);
HEPES filter buffer (50 mM HEPES, pH 7.0, 5 mM MgCl2, BSA 0.01%) Multiscreen FB (1 μm) filter plate (Millipore, MAFBNOB 50).
The 96-well microtitre filter plates are firstly irrigated and coated with 0.1% of polyethylenimine.
The test is carried out under the following conditions:
Reaction temperature 22° C.
Reaction time: 30 min., shaking at 800 rpm
50 mM HEPES HCl, pH 7.0, 5 mM MgCl2, 0.01% (w/v) BSA
At the end of the reaction, the supernatant in the filter plate is removed by suction with the aid of a vacuum manifold (Multiscreen Separation System, Millipore), and the filter is washed twice.
The filter plates are then measured in a beta counter (Microbeta, Wallac) with scintillator (Microscint 20, Packard).
“% of control” is determined from the “counts per minutes” values and the IC-50 value of a compound is calculated therefrom.
One may read the IC50 as the concentration needed to halve the response being measured. In the case of `Fc1nc(N2CCC[C@@H]2COc2ccccc2F)c2nc[nH]c2n1` [Compound A47, 2-Fluoro-6-[(R)-2-(2-fluorophenoxy-methyl)pyrrolidin-1-yl]-9H-purine], the IC50 came to 0.9 µM.

With `Brc1ccccc1OC[C@H]1CCCN1c1ncnc2[nH]cnc12` [Compound A52, 6-[(R)-2-(2-Bromophenoxymethyl)-pyrrolidin-1-yl]-9H-purine], the IC50 came out at 20 µM.

In the case of `O[C@H]1C[C@H](COc2ccccc2)N(c2nc(Cl)nc3[nH]cnc23)C1` [Compound A53, 2-chloro-6-[(2R,4S)-2-phenoxymethyl-4-hydroxypyrrolidin-1-yl]-9H-purine], the IC50 was determined as 30 µM.

For `Cc1nc(N2CCC[C@@H]2COc2ccccc2F)c2nc[nH]c2n1` [Compound A57, 2-Methyl-6-[(R)-2-(2-fluorophenoxy-methyl)pyrrolidin-1-yl]-9H-purine], the IC50 worked out at 1.5 µM.

Consider `Cc1nc(N2CCC[C@@H]2COc2ccccc2Cl)c2nc[nH]c2n1` [Compound A58, 2-Methyl-6-[(R)-2-(2-chloro-phenoxymethyl)pyrrolidin-1-yl]-9H-purine], for which the IC50 came out at 6.3 µM.

For the origin of these results see patent US7977343B2, “Adenine derivatives” (Merck Patent Gesellschaft mit beschrankter Haftung, priority 2005, dated 2011).
